Results taken from BindingDB's records for patent US12110286 (Cancer Research Technology, 2024).

Target: B-cell lymphoma 6 protein (Homo sapiens, UniProt P41182)
Experiment: HTRF In Vitro Assay
Protocol: The % inhibition at each concentration was calculated by normalising FRET ratio to the appropriate high (DMSO with all reagents) and low (DMSO without BCL6) controls.

Cn1c(=O)n(CCC(C)(C)O)c2cc(Nc3nc(N4CCC(Cn5cccn5)CC4)ncc3Cl)ccc21 [US12110286, Example 35zb]
IC50: 324 nM
